The target in this experiment is T1, fatty acyl CoA: cholesterol acyl transferase (ACAT) (Rattus norvegicus, UniProt O70536).
T1 construct: The supernatant, containing the microsomal fraction, served as the source of the cholesterol-esterifying enzyme; from tissue; host or cells: rat adrenals, supernatant of 1,000 x g centrifugation containing the microsomal fraction
T1 sequence (O70536 1-545): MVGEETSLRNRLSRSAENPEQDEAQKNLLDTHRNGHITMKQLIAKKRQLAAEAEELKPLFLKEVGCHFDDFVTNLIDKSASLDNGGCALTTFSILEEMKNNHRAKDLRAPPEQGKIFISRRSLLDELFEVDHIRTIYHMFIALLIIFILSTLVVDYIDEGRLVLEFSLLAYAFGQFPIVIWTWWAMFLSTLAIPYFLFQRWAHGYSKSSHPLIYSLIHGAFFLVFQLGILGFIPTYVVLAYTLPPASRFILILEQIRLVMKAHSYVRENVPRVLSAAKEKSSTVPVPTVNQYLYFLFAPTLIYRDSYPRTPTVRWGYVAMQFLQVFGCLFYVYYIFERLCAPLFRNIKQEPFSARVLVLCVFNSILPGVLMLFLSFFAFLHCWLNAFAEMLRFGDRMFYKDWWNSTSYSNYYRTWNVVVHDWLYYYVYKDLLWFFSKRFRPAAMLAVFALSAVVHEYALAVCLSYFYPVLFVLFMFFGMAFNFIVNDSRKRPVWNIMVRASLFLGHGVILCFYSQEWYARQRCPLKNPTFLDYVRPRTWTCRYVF
The experiment is described as follows: Inhibition of fatty acyl CoA:cholesterol acyl transferase (ACAT), rat adrenal enzyme. The format is biochemical. The protocol: The compounds of the present invention were assayed for two types of biological activity related to their potential use as antiatherosclerotic agents. Compounds were tested in vitro for the ability to inhibit the enzyme fatty acyl CoA: cholesterol acyl transferase (ACAT) and in vivo for serum hypolipidemic activity as meausred by the ability to inhibit lipid absorption in rats.
The compounds were tested for their ability to inhibit ACAT according to the following procedure: rat adrenals were homogenized in 0.2M monobasic potassium phosphate buffer, pH 7.4, and centrifuged at 1,000 times gravity for 15 minutes at 5° C. The supernatant, containing the microsomal fraction, served as the source of the cholesterol-esterifying enzyme, fatty acyl CoA:cholesterol acyl transferase (ACAT). A mixture comprising 50 parts of adrenal supernatant, 10 parts of bovine serum albumin (50 mg/ml), 3 parts of test compound (final concentration 5.2 μg/ml), and 500 parts of buffer was preincubated at 37° C. for 10 minutes. After treatment with 20 parts of oleoyl CoA (^14 C-0.4 μCi), the mixture was incubated at 37° C. for 10 minutes. A control mixture, omitting the test compound, was prepared and treated in the same manner. The lipids from the incubation mixture was extracted into an organic solvent and separated by thin-layer chromatography. The cholesteryl ester fraction was counted in a scintillation counter. This procedure is a modification of that described by Hashimoto, et al., Life Scie., 12 (Part II), 1-12 (1973).
Compounds which produced statistically significant inhibition of the ACAT enzyme are considered to be active.
In addition to the above described test and the results given in terms of percent inhibition, various compounds of this invention were tested by the same procedure at several concentrations. The results of this test are given in Table II in terms of IC50 (μM), that concentration which produced 50% inhibition of the ACAT enzyme.

[1] abbreviates: rat adrenal ACAT, final concentration 5.2 μg/ml, read-out: % Inhibition.

Read-outs that look alike come from different tables or passages of the source.

What is called inhibition is the percentage by which the read-out fell short of the control. For `CCCCN(CCCc1ccc(OC)c(OC)c1)C(=O)Nc1ccc(C)cc1C` [1-(n-Butyl)-1-[3-(3,4-dimethoxyphenyl)propyl]-3-(2,4-dimethylphenyl)urea], the inhibition at 5.2 µg/mL under setting [1] turned out to be 36.4%.
Take `CCCCCCc1ccc(CN(CCCC)C(=O)Nc2ccc(C)cc2C)cc1` [1-(n-Butyl)-1-[4-(n-hexyl)benzyl]-3-(2,4-dimethylphenyl)urea]: the inhibition at 5.2 µg/mL under setting [1] amounted to 93.8%.
In the case of `CCCCN(Cc1ccccc1)C(=O)Nc1cc(Cl)ccc1O` [1-(n-Butyl)-1-benzyl-3-(2-hydroxy-5-chlorophenyl)urea], under setting [1], the inhibition at 5.2 µg/mL came out at 85.6%.
Turning to `CCCCN(Cc1ccccc1)C(=O)Nc1ccccc1[N+](=O)[O-]` [1-(n-Butyl)-1-benzyl-3-(2-nitrophenyl)urea], the inhibition at 5.2 µg/mL under setting [1] is 37%.
The same measure, in the same setting: in the case of `CCCCN(Cc1ccccc1)C(=O)Nc1cccc(Cl)c1O` [1-(n-Butyl)-1-benzyl-3-(3-chloro-2-hydroxyphenyl)urea] it was 71%; in that of `CCCCN(Cc1ccccc1)C(=O)Nc1cc(Cl)c(N)c(Cl)c1` [1-(n-Butyl)-1-benzyl-3-(4-amino-3,5-dichlorophenyl)urea], 61.1%; in that of `CCCCN(Cc1ccccc1)C(=O)Nc1cc(Cl)c(NC(=O)C(F)(F)F)c(Cl)c1` [1-(n-Butyl)-1-benzyl-3-(4-trifluoroacetylamino-3,5-dichlorophenyl)urea], 87.8%.
On to `CCCCCCCCCCN(Cc1ccccc1)C(=O)Nc1ccc(C)cc1C` [1-(n-Decyl)-1-benzyl-3-(2,4-dimethylphenyl)urea], for which the inhibition at 5.2 µg/mL under setting [1] is 96.1%.
`CCCCCCCN(C(=O)Nc1cc(C)c(C)cc1C)c1ccco1` [1-(n-Heptyl)-1-(2-furyl)-3-(2,4,5-trimethylphenyl)urea]: the inhibition at 5.2 µg/mL under setting [1] came out at 93.8%.
Regarding `CCCCCCCN(C(=O)Nc1c(Cl)cc(Cl)cc1Cl)c1ccco1` [1-(n-Heptyl)-1-(2-furyl)-3-(2,4,6-trichlorophenyl)urea], under setting [1], the inhibition at 5.2 µg/mL was found to be 96.1%.
The same measure, in the same setting: in the case of `CCCCCCCN(CCc1ccccc1)C(=O)Nc1cc(Cl)c(Cl)cc1Cl` [1-(n-Heptyl)-1-(2-phenylethyl)-3-(2,4,5-trichlorophenyl)urea] it was 77.3%; in that of `CCCCCCCN(CCc1ccccc1)C(=O)Nc1cccc(C(F)(F)F)c1` [1-(n-Heptyl)-1-(2-phenylethyl)-3-(3-trifluoromethylphenyl)urea], 88.4%; in that of `CCCCCCCN(Cc1ccc(CCCC)cc1)C(=O)Nc1cc(Cl)c(Cl)cc1Cl` [1-(n-Heptyl)-1-(4-n-butylbenzyl)-3-(2,4,5-trichlorophenyl)urea], 46.5%.
Turning to `CCCCCCCN(Cc1ccc(CCCC)cc1)C(=O)Nc1cccc(C(F)(F)F)c1` [1-(n-Heptyl)-1-(4-n-butylbenzyl)-3-(3-trifluoromethylphenyl)urea], the inhibition at 5.2 µg/mL under setting [1] came out at 85%.
`CCCCCCCN(Cc1ccc(CCCC)cc1)C(=O)Nc1ccc(C(=O)O)cc1` [1-(n-Heptyl)-1-(4-n-butylbenzyl)-3-(4-carboxyphenyl)urea]: under setting [1], the inhibition at 5.2 µg/mL was found to be 61.8%.
`CCCCCCCN(Cc1ccc(CCCC)cc1)C(=O)Nc1cccc(C(F)(F)F)c1` [1-(n-Heptyl)-1-[4-(n-butyl)benzyl]-3-(3-trifluoromethylphenyl)urea] displayed an inhibition at 5.2 µg/mL of 90%.
With `CCCCCCCCCCCCCCN(Cc1ccccc1)C(=O)Nc1ccc(C)cc1C` [1-(n-Tetradecyl)-1-benzyl-3-(2,4-dimethylphenyl)urea], under setting [1], the inhibition at 5.2 µg/mL was found to be 80.3%.
For the compound `CCCCc1ccc(CN(Cc2ccccc2)C(=O)Nc2ccc(Oc3ccccc3)cc2)cc1` [1-Benzyl-1-(4-n-butylbenzyl)-3-(4-phenoxyphenyl)urea], the inhibition at 5.2 µg/mL under setting [1] is 93.5%.
Same read-out and setting: as for `CCCCN(Cc1ccccc1)C(=O)Nc1cccc(C)c1C` [1-Benzyl-1-( -n-butyl)-3-(2,3-dimethylphenyl)urea], the figure is 85.8%; as for `CCCCN(Cc1ccccc1)C(=O)Nc1c(C)cc(C)cc1C` [1-Benzyl-1-( -n-butyl)-3-(2,4,6-trimethylphenyl)urea], 75.8%; as for `CCCCN(Cc1ccccc1)C(=O)Nc1cc(C)ccc1C` [1-Benzyl-1-( -n-butyl)-3-(2,5-dimethylphenyl)urea], 92.7%.
As for `CCCCN(Cc1ccccc1)C(=O)Nc1ccccc1C` [1-Benzyl-1-( -n-butyl)-3-(2-methylphenyl)urea], the inhibition at 5.2 µg/mL under setting [1] was found to be 78.8%.
For `CCCCN(Cc1ccccc1)C(=O)Nc1ccc(Cl)c(Cl)c1` [1-Benzyl-1-( -n-butyl)-3-(3,4-dichlorophenyl)urea], the inhibition at 5.2 µg/mL under setting [1] came out at 95.9%.
The same measure, in the same setting: in the case of `CCCCN(Cc1ccccc1)C(=O)Nc1ccc(C)c(C)c1` [1-Benzyl-1-( -n-butyl)-3-(3,4-dimethylphenyl)urea] it was 87.1%; in that of `CCCCN(Cc1ccccc1)C(=O)Nc1cc(Cl)cc(Cl)c1` [1-Benzyl-1-( -n-butyl)-3-(3,5-dichlorophenyl)urea], 90.7%.
For `CCCCN(Cc1ccccc1)C(=O)Nc1cccc(Cl)c1OC` [1-Benzyl-1-( -n-butyl)-3-(3-chloro-2-methoxyphenyl)urea], under setting [1], the inhibition at 5.2 µg/mL was found to be 84.5%.
On to `CCCCN(Cc1ccccc1)C(=O)Nc1cccc(C)c1` [1-Benzyl-1-( -n-butyl)-3-(3-methylphenyl)urea], for which the inhibition at 5.2 µg/mL under setting [1] amounted to 92.3%.
On to `CCCCN(Cc1ccccc1)C(=O)Nc1cccc(C(F)(F)F)c1` [1-Benzyl-1-( -n-butyl)-3-(3-trifluoromethylphenyl)urea], for which the inhibition at 5.2 µg/mL under setting [1] was 85.7%.
As to `CCCCN(Cc1ccccc1)C(=O)Nc1ccc(C)cc1` [1-Benzyl-1-( -n-butyl)-3-(4-methylphenyl)urea], the inhibition at 5.2 µg/mL under setting [1] turned out to be 78%.
As for `CCCCN(Cc1ccccc1)C(=O)Nc1cc(Cl)ccc1OC` [1-Benzyl-1-( -n-butyl)-3-(5-chloro-2-methoxyphenyl)urea], the inhibition at 5.2 µg/mL under setting [1] worked out at 80.6%.
The same measure, in the same setting: in the case of `CCCCN(Cc1ccccc1)C(=O)Nc1cccc(Cl)c1` [1-Benzyl-1-(n-butyl)-3-(3-chlorophenyl)urea] it was 88.6%; in that of `CCCCN(Cc1ccccc1)C(=S)Nc1ccccc1` [1-Benzyl-1-(n-butyl)-3-phenyl thiourea], 82.4%.
For `COc1cccc(C(Cc2ccccc2)N(Cc2ccccc2)C(=O)Nc2ccc(C)cc2C)c1` (stereo not drawn) [1-Benzyl-1-[1-(3-methoxyphenyl)-2-phenylethyl]-3-(2,4-dimethylphenyl)urea], the inhibition at 5.2 µg/mL under setting [1] is 86.4%.
The same measure, in the same setting: in the case of `COc1cccc(C(Cc2ccccc2)N(Cc2ccccc2)C(=O)Nc2cccc(C(F)(F)F)c2)c1` (stereo not drawn) [1-Benzyl-1-[1-(3-methoxyphenyl)-2-phenylethyl]-3-(3-trifluoromethylphenyl)urea] it was 88.1%; in that of `Cc1ccc(NC(=O)N(Cc2ccccc2)C(Cc2ccccc2)c2ccc(OCc3ccccc3)cc2)c(C)c1` (stereo not drawn) [1-Benzyl-1-[1-(4-benzyloxyphenyl)-2-phenylethyl]-3-(2,4-dimethylphenyl)urea], 93%; in that of `O=C(Nc1cc(Cl)c(Cl)cc1Cl)N(Cc1ccccc1)C(Cc1ccccc1)c1ccc(OCc2ccccc2)cc1` (stereo not drawn) [1-Benzyl-1-[2-phenyl-1-(4-benzyloxyphenyl)ethyl]-3-(2,4,5-trichlorophenyl)urea], 95%.
Take `Cc1cc(C)c(NC(=O)N(Cc2ccccc2)C(Cc2ccccc2)c2ccc(OCc3ccccc3)cc2)cc1C` (stereo not drawn) [1-Benzyl-1-[2-phenyl-1-(4-benzyloxyphenyl)ethyl]-3-(2,4,5-trimethylphenyl)urea]: the inhibition at 5.2 µg/mL under setting [1] came to 93.7%.
As for `O=C(Nc1ccc(Cl)cc1C(F)(F)F)N(Cc1ccccc1)C(Cc1ccccc1)c1ccc(OCc2ccccc2)cc1` (stereo not drawn) [1-Benzyl-1-[2-phenyl-1-(4-benzyloxyphenyl)ethyl]-3-(2-trifluoromethyl-4-chlorophenyl)urea], under setting [1], the inhibition at 5.2 µg/mL is 92%.
Turning to `O=C(Nc1cccc(C(F)(F)F)c1)N(Cc1ccccc1)C(Cc1ccccc1)c1ccc(OCc2ccccc2)cc1` (stereo not drawn) [1-Benzyl-1-[2-phenyl-1-(4-benzyloxyphenyl)ethyl]-3-(3-trifluoromethylphenyl)urea], under setting [1], the inhibition at 5.2 µg/mL was found to be 74%.
